Measurements reported in paper PMC7845594, “Novel Immune Modulators Enhance Caenorhabditis elegans Resistance to Multiple Pathogens” (mSphere, 2021).

What was measured:
C. elegans transcriptome = assay: Transcriptome profiling (Affymetrix microarrays), differentially expressed genes; format: in vivo, Caenorhabditis elegans
Experimental: To gain additional insight into the effect of LK molecules on C. elegans, young-adult, wild-type worms were treated with each drug at 100 µM for 8 h in the absence of pathogen. RNA was collected, and transcriptome profiling was performed.
Data were determined using Affymetrix microarrays, as described in Materials and Methods. Download Table S3, XLSX file, 0.07 MB.
Transcriptome profiling was performed on ∼6,000 wild-type, young adult worms incubated with either LK molecules or DMSO for 8 h. RNA isolation was performed using TRIzol extraction, followed by cleanup using RNeasy columns according to the manufacturer’s protocol. Each condition was analyzed in triplicate. Microarray data have been deposited in the GEO database, accession number GSE137516. […] Clustering and generation of the heat map was performed using Cluster 3.0 ([98]) and Treeview ([99]), respectively. Fold change of genes were normalized to average fold change of that gene over all clustered conditions. Genes and conditions were clustered using Euclidean distance and average linkages. […] Microarray data for non-LK molecules were collected from GEO omnibus. WormEXP was used as a secondary method for confirming statistical significance of potential pathways stimulated by each of the LK molecules ([100]). Gene ontologies were generated using DAVID ([101], [102]).

glp-4(bn2) worms = assay: Longevity (life span) assay; conditions: 50 μM in NGM, E. coli OP50, Fig 3A
Experimental: To test the long-term toxicity of the hit compounds, life span assays were carried out by placing sterile, young adult glp-4(bn2) worms on NGM (standard nematode growth media, defined in Materials and Methods) seeded with Escherichia coli OP50. […] Sterile worms were used to eliminate the need to transfer worms between plates during life span assays, and we elected to use glp-4(bn2) to induce sterility instead of using wild-type worms sterilized with 5-fluoro-2′-deoxyuridine (FUDR) because the interaction of the compounds could generate artifacts during the long course of life span experiments.
Worms were scored daily by prodding. […] The viability was normalized to a DMSO solvent control. […] Error bars represent standard error of the mean.
Worms were picked onto agar plates seeded with 50 µl of concentrated E. coli OP50. Compounds were added to liquid agar before pouring plates. Worms were scored every day for death by prodding with a platinum wire. Worms that escaped the plate or died on the wall of the plate were censored. Each compound was tested in at least three biological replicates, each including 50 to 70 worms.

In the case of `CNC(=O)Oc1c(Br)cc2sc(=O)oc2c1Br` [LK34], the “Fold Change” value (C. elegans transcriptome; upregulated gene W05H9.1, Affy_ID 179806_at) is reported as 2.462, the “Fold Change” value (C. elegans transcriptome; upregulated gene W06D4.1, Affy_ID 172046_x_at) is reported as 3.704 and the “Fold Change” value (C. elegans transcriptome; upregulated gene W06D12.3, Affy_ID 192357_at) is reported as 7.111. For the same molecule, the “Fold Change” value (C. elegans transcriptome; upregulated gene W06H8.1, Affy_ID 185746_s_at) was 2.211, the “Fold Change” value (C. elegans transcriptome; upregulated gene W09C3.1, Affy_ID 192187_s_at) was 2.464 and the “Fold Change” value (C. elegans transcriptome; upregulated gene W09D10.2, Affy_ID 188190_at) was 2.479. The “Fold Change” value (C. elegans transcriptome; upregulated gene Y17G7B.5, Affy_ID 191321_s_at) was 2.063, the “Fold Change” value (C. elegans transcriptome; upregulated gene Y19D10A.9, Affy_ID 180592_s_at) was 3.023 and the “Fold Change” value (C. elegans transcriptome; upregulated gene Y22F5A.4, Affy_ID 182989_at) was 2.493. The “Fold Change” value (C. elegans transcriptome; upregulated gene Y22F5A.5, Affy_ID 183028_s_at) was 6.999, the “Fold Change” value (C. elegans transcriptome; upregulated gene Y25C1A.13, Affy_ID 192131_s_at) was 2.041 and the “Fold Change” value (C. elegans transcriptome; upregulated gene Y37A1B.5, Affy_ID 182849_at) was 3.394. The “Fold Change” value (C. elegans transcriptome; upregulated gene Y37D8A.3, Affy_ID 182387_at) was 3.237, the “Fold Change” value (C. elegans transcriptome; upregulated gene Y37D8A.6, Affy_ID 181665_at) was 3.132 and the “Fold Change” value (C. elegans transcriptome; upregulated gene Y37E3.16, Affy_ID 173045_at) was 3.373. The “Fold Change” value (C. elegans transcriptome; upregulated gene Y38E10A.14, Affy_ID 175449_s_at) was 19.1307, the “Fold Change” value (C. elegans transcriptome; upregulated gene Y38F1A.9, Affy_ID 183759_at) was 3.202 and the “Fold Change” value (C. elegans transcriptome; upregulated gene Y39G10AR.10, Affy_ID 176486_at) was 3.752. The “Fold Change” value (C. elegans transcriptome; upregulated gene Y40B10A.6, Affy_ID 176851_at) was 72.4303, the “Fold Change” value (C. elegans transcriptome; upregulated gene Y41C4A.16, Affy_ID 194230_x_at) was 2.854 and the “Fold Change” value (C. elegans transcriptome; upregulated gene Y41D4B.10, Affy_ID 176055_at) was 12.5937. The “Fold Change” value (C. elegans transcriptome; upregulated gene Y41D4B.16, Affy_ID 176044_at) was 3.687, the “Fold Change” value (C. elegans transcriptome; upregulated gene Y42G9A.3, Affy_ID 184843_at) was 2.448 and the “Fold Change” value (C. elegans transcriptome; upregulated gene Y45F3A.3, Affy_ID 190484_at) was 2.142. For the same molecule, the “Fold Change” value (C. elegans transcriptome; upregulated gene Y45F10C.4, Affy_ID 186062_at) was 3.365, the “Fold Change” value (C. elegans transcriptome; upregulated gene Y45G12C.2, Affy_ID 187084_at) was 44.4121 and the “Fold Change” value (C. elegans transcriptome; upregulated gene Y47D3B.10, Affy_ID 175803_at) was 16.792. The “Fold Change” value (C. elegans transcriptome; upregulated gene Y47H9C.5, Affy_ID 191065_s_at) was 3.655, the “Fold Change” value (C. elegans transcriptome; upregulated gene Y51H7C.1, Affy_ID 186349_at) was 10.7753 and the “Fold Change” value (C. elegans transcriptome; upregulated gene Y53C10A.5, Affy_ID 185387_s_at) was 2.3. The “Fold Change” value (C. elegans transcriptome; upregulated gene Y53F4B.33, Affy_ID 191337_at) was 3.746, the “Fold Change” value (C. elegans transcriptome; upregulated gene Y53G8B.2, Affy_ID 184714_s_at) was 12.3167 and the “Fold Change” value (C. elegans transcriptome; upregulated gene Y55B1AR.1, Affy_ID 187047_at) was 6.102. The “Fold Change” value (C. elegans transcriptome; upregulated gene Y57A10A.23, Affy_ID 187073_at) was 4.099, the “Fold Change” value (C. elegans transcriptome; upregulated gene Y57G7A.1, Affy_ID 184451_at) was 2.494 and the “Fold Change” value (C. elegans transcriptome; upregulated gene Y66D12A.24, Affy_ID 175124_at) was 2.157. For the same molecule, the “Fold Change” value (C. elegans transcriptome; upregulated gene Y73F4A.1, Affy_ID 183741_s_at) was 2.361, the “Fold Change” value (C. elegans transcriptome; upregulated gene Y77E11A.2, Affy_ID 187013_at) was 2.74 and the “Fold Change” value (C. elegans transcriptome; upregulated gene Y105C5B.15, Affy_ID 186799_at) was 3.153. For the same molecule, the “Fold Change” value (C. elegans transcriptome; upregulated gene Y105C5B.9, Affy_ID 185162_at) was 4.733, the “Fold Change” value (C. elegans transcriptome; upregulated gene Y106G6D.6, Affy_ID 185498_at) was 6.605 and the “Fold Change” value (C. elegans transcriptome; upregulated gene Y110A2AL.4, Affy_ID 175367_s_at) was 14.9078. The “Fold Change” value (C. elegans transcriptome; upregulated gene ZC64.2, Affy_ID 177670_at) was 2.001, the “Fold Change” value (C. elegans transcriptome; upregulated gene ZC155.1, Affy_ID 173222_s_at) was 2.272 and the “Fold Change” value (C. elegans transcriptome; upregulated gene ZC455.4, Affy_ID 191057_s_at) was 5.011. The “Fold Change” value (C. elegans transcriptome; upregulated gene ZK6.10, Affy_ID 175170_s_at) was 5.465, the “Fold Change” value (C. elegans transcriptome; upregulated gene ZK455.1, Affy_ID 193891_at) was 2.692 and the “Fold Change” value (C. elegans transcriptome; upregulated gene ZK512.7, Affy_ID 186714_s_at) was 3.907. For the same molecule, the “Fold Change” value (C. elegans transcriptome; upregulated gene ZK550.6, Affy_ID 186811_s_at) was 2.631, the “Fold Change” value (C. elegans transcriptome; upregulated gene ZK637.13, Affy_ID 173475_s_at) was 3.509 and the “Fold Change” value (C. elegans transcriptome; upregulated gene ZK688.6, Affy_ID 176040_s_at) was 2.439. The “Fold Change” value (C. elegans transcriptome; upregulated gene ZK770.3, Affy_ID 180366_s_at) was 3.016, the “Fold Change” value (C. elegans transcriptome; upregulated gene ZK829.9, Affy_ID 189819_s_at) was 5.03 and the “Fold Change” value (C. elegans transcriptome; upregulated gene ZK899.2, Affy_ID 178376_s_at) was 4.028. The “Fold Change” value (C. elegans transcriptome; upregulated gene ZK1058.6, Affy_ID 188607_at) was 45.3463, the “Fold Change” value (C. elegans transcriptome; upregulated gene ZK1251.2, Affy_ID 188538_at) was 5.974 and the “Fold Change” value (C. elegans transcriptome; upregulated gene ZK1290.8, Affy_ID 184676_s_at) was 4.32. The “TD50 (time to 50% death), life span” value (glp-4(bn2) worms) was 10.1 days.
